Patent US10954214B2 (Janssen Pharmaceutica NV, priority 2016, dated 2021)
pIC50: −log10 of the molar value.

Key:
[1] = molecular target: full-length MALT1 protein (Strep-MALT1(1-824)-His) (Homo sapiens (Human), UniProt Q9UDY8); assay: MALT1 Biochemical Protease Assay (Ac-LRSR-AMC substrate); settings: 10 nM FL MALT1, 200 μM Ac-LRSR-AMC, 4 h at RT; read-out: MALT1_Biochemical activity (Ac-LRSR-amc) IC50
Procedure, shortened: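 Full-length MALT1 pre-incubated with compounds (30 μM to 0.5 nM, 11 threefold steps) for 50 min at RT. After Ac-LRSR-AMC was added, the reaction ran 4 h at RT and AMC fluorescence was read. IC50 and Hill slope from curve fitting against no-enzyme and no-compound controls.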

[2] = system: IL6 secretion by OCI-LY3 ABC-DLBCL cells; assay: Human IL6 Mesoscale assay (OCI-LY3); format: cell-based; settings: Homo sapiens, 24 h
Method: (§1) NFKB signaling regulates the secretion of multiple cytokines, including IL6 and IL10. Secretion of the cytokines IL6 and IL10 by TMD8 or OCI-LY3 ABC-DLBCL cells was measured using a mesoscale assay. Inhibition of NFKB signaling by MALT1 or BTK inhibitors results in a decrease of IL6/10 secretion.
(§2) TMD8 or OCI-LY3 cells were propagated in RPMI-1640 (Sigma Aldrich) supplemented with 10% fetal bovine serum (HyClone), 1 mM sodium pyruvate (Invitrogen), 2 mM L-glutamine (Sigma Aldrich) and 1% PenStrep (Sigma Aldrich). Cell passage number should not exceed 30. Cells should be kept between 0.5-2.5 million cells per mL during culturing and cells should be supplemented every 2-3 days with fresh 50 μM beta-mercaptoenthanol. No beta-mercaptoethanol was used during the mesoscale assay.
(§3) For the Mesoscale assay, 100,000 TMD8 or OCI-LY3 cells were seeded per well into black-colored 96-well plates with clear bottom (Corning #3904) and test compounds were added in 9 dilution steps (1:2) ranging from 15 μM to 58.6 nM (final DMSO concentration 0.3%). DMSO control wells were used to determine the maximum signal (High Control (HC)). Treatment with the BTK inhibitor RN486 in a dose range from 30 nM to 131 pM (9 dilutions of 1:2) served as a positive control for NFKB pathway inhibition and was used to determine the maximum inhibition (Low Control (LC)). Compounds and cells were incubated for 24 h at 37° C. and 5% CO2 (assay volume is 150 μL). After 24 h of incubation 50 μL of the supernatant was transferred to a MSD plate (V-Plex Proinflammation Panel 1 (human) kit, Mesoscale (MSD)) and incubated for 2 h with vigorous shaking (600 rpm) at room temperature. Following incubation, plates were washed 3× with PBS+0.05% Tween-20 and 25 μL detection antibody solution (IL6 & IL10 antibodies in diluent 3 (MSD)) was added per well followed by 2 h of incubation with vigorous shaking (600 rpm) at room temperature. After 3× washes with PBS+0.05% Tween-20, plates were incubated with 150 μL 2× Read Buffer T and read on SECTOR imager.

[3] = system: IL10 secretion by OCI-LY3 ABC-DLBCL cells; assay: Human IL10 Mesoscale assay (OCI-LY3); format: cell-based; settings: Homo sapiens, 24 h
Method: as §1, §2, §3

[4] = system: IL6 secretion by TMD8 ABC-DLBCL cells; assay: Human IL6 Mesoscale assay (TMD-8); format: cell-based; settings: Homo sapiens, TMD8; TMD-8 cells, 24 h
Procedure, shortened: (§4)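 100,000 cells/well treated with compound in 9 twofold steps from 15 μM to 58.6 nM (0.3% DMSO) for 24 h at 37° C; supernatant cytokine measured by MSD electrochemiluminescence sandwich immunoassay. DMSO wells set maximum signal, BTK inhibitor RN486 (30 nM to 131 pM) set maximum inhibition.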

[5] = system: IL10 secretion by TMD8 ABC-DLBCL cells; assay: Human IL10 Mesoscale assay (TMD-8); format: cell-based; settings: Homo sapiens, TMD8; TMD-8 cells, 24 h
Procedure, shortened: as §4

Chain of full-length MALT1 protein (Strep-MALT1(1-824)-His) (Q9UDY8 whole entry): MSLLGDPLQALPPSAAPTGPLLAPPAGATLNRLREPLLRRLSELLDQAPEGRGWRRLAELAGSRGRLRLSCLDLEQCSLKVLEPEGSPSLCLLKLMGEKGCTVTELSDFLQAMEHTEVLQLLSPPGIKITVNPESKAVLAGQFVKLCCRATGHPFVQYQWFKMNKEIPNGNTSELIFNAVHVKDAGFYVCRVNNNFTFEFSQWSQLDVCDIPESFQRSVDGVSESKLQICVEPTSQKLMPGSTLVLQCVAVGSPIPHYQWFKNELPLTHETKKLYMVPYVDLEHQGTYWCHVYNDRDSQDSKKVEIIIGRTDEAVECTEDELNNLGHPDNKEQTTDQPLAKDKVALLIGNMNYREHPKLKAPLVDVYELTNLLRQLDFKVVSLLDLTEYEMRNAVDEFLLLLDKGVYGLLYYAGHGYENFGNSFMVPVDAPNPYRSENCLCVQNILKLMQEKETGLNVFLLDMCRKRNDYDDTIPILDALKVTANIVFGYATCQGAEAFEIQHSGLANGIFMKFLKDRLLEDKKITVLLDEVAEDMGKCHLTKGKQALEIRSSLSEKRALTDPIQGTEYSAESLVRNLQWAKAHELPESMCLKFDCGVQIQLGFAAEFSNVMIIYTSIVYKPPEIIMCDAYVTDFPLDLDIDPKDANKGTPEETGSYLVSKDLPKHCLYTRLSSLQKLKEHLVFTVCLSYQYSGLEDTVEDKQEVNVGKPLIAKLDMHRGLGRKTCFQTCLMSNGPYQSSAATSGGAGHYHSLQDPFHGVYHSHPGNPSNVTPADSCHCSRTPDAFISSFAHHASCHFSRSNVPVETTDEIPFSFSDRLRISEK

N#Cc1ncc(NC(=O)c2cnn(-c3cccc4c(=O)[nH]ccc34)c2C(F)(F)F)cc1C(F)(F)F [Cpd 354, N-(6-cyano-5-(trifluoromethyl)pyridin-3-yl)-1-(1-oxo-1,2-dihydroisoquinolin-5-yl)-5-(trifluoromethyl)-1H-pyrazole-4-carboxamide]
pIC50 [1]: 7.28 | pIC50 [2]: 6.34 | pIC50 [3]: 6.36

Cc1cc(-n2nccn2)c(C#N)cc1NC(=O)c1cnn(-c2cnc(N)c3ccccc23)c1C(F)(F)F [Cpd 337, 1-(1-aminoisoquinolin-4-yl)-N-(5-cyano-2-methyl-4-(2H-1,2,3-triazol-2-yl)phenyl)-5-(trifluoromethyl)-1H-pyrazole-4-carboxamide]
pIC50 [1]: 6.85 | pIC50 [2]: 6.68 | pIC50 [3]: 6.74

Cc1ncc(NC(=O)c2cnn(-c3cccc4c(=O)[nH]ccc34)c2C(F)(F)F)cc1C(F)(F)F [Cpd 348, N-(6-methyl-5-(trifluoromethyl)pyridin-3-yl)-1-(1-oxo-1,2-dihydroisoquinolin-5-yl)-5-(trifluoromethyl)-1H-pyrazole-4-carboxamide]
pIC50 [1]: 6.71 | pIC50 [2]: 7.00 | pIC50 [3]: 7.17

O=C(Nc1cnc(-n2nccn2)c(Cl)c1)c1cnn(-c2cnc(Cl)c3sccc23)c1C(F)(F)F [Cpd 424, N-(5-chloro-6-(2H-1,2,3-triazol-2-yl)pyridin-3-yl)-1-(7-chlorothieno[2,3-c]pyridin-4-yl)-5-(trifluoromethyl)-1H-pyrazole-4-carboxamide]
pIC50 [1]: 7.14 | pIC50 [2]: 6.78 | pIC50 [3]: 6.74

Nc1ncc(-n2ncc(C(=O)Nc3cncc(C(F)(F)F)c3)c2C(F)(F)F)c2ccccc12 [Cpd 342, 1-(1-aminoisoquinolin-4-yl)-5-(trifluoromethyl)-N-(5-(trifluoromethyl)pyridin-3-yl)-1H-pyrazole-4-carboxamide]
pIC50 [1]: 6.94 | pIC50 [2]: 6.79 | pIC50 [3]: 6.88

NC(=O)c1nccc2c(-n3ncc(C(=O)Nc4cnc(-n5nccn5)c(Cl)c4)c3C(F)(F)F)cccc12 [Cpd 389, 5-(4-((5-chloro-6-(2H-1,2,3-triazol-2-yl)pyridin-3-yl)carbamoyl)-5-(trifluoromethyl)-1H-pyrazol-1-yl)isoquinoline-1-carboxamide]
pIC50 [1]: 6.73 | pIC50 [4]: 7.24 | pIC50 [5]: 7.34

N#Cc1ccc2c(-n3ncc(C(=O)Nc4cnc(-n5nccn5)c(Cl)c4)c3C(F)(F)F)cccc2n1 [Cpd 413, N-(5-chloro-6-(2H-1,2,3-triazol-2-yl)pyridin-3-yl)-1-(2-cyanoquinolin-5-yl)-5-(trifluoromethyl)-1H-pyrazole-4-carboxamide]
pIC50 [1]: 6.54 | pIC50 [4]: < 5.82 | pIC50 [5]: 6.42

O=C(Nc1cnc(-n2nccn2)c(Cl)c1)c1cnn(-c2cnc(F)c3ccccc23)c1C(F)(F)F [Cpd 264, N-(5-chloro-6-(2H-1,2,3-triazol-2-yl)pyridin-3-yl)-1-(1-fluoroisoquinolin-4-yl)-5-(trifluoromethyl)-1H-pyrazole-4-carboxamide]
pIC50 [1]: 6.78 | pIC50 [4]: 6.91 | pIC50 [5]: 7.44

COCc1ncc(-n2ncc(C(=O)Nc3cnc(-n4nccn4)c(Cl)c3)c2C(F)(F)F)c2ccccc12 [Cpd 404, N-(5-chloro-6-(2H-1,2,3-triazol-2-yl)pyridin-3-yl)-1-(1-(methoxymethyl)isoquinolin-4-yl)-5-(trifluoromethyl)-1H-pyrazole-4-carboxamide]
pIC50 [1]: 7.04 | pIC50 [4]: 6.04 | pIC50 [5]: 5.58

O=C(Nc1cnc(-n2nccn2)c(Cl)c1)c1cnn(-c2nsc3ncccc23)c1C(F)(F)F [Cpd 279, N-(5-chloro-6-(2H-1,2,3-triazol-2-yl)pyridin-3-yl)-1-(isothiazolo[5,4-b]pyridin-3-yl)-5-(trifluoromethyl)-1H-pyrazole-4-carboxamide]
pIC50 [1]: 6.90 | pIC50 [4]: 5.43 | pIC50 [5]: 5.56

COC(=O)c1ncc(NC(=O)c2cnn(-c3cccc4ncccc34)c2C(F)(F)F)cc1Cl [Cpd 258, methyl 3-chloro-5-(1-(quinolin-5-yl)-5-(trifluoromethyl)-1H-pyrazole-4-carboxamido)picolinate]
pIC50 [1]: 6.64 | pIC50 [4]: 6.23 | pIC50 [5]: 6.50

O=C(Nc1cnc(-c2ncco2)c(Cl)c1)c1cnn(-c2cccc3ncccc23)c1C(F)(F)F [Cpd 91, N-(5-chloro-6-(oxazol-2-yl)pyridin-3-yl)-1-(quinolin-5-yl)-5-(trifluoromethyl)-1H-pyrazole-4-carboxamide]
pIC50 [1]: 7.82 | pIC50 [4]: 6.82 | pIC50 [5]: 6.81

N#Cc1cc(NC(=O)c2cnn(-c3ncc(F)c4ccccc34)c2C(F)(F)F)cnc1-n1nccn1 [Cpd 263, N-(5-cyano-6-(2H-1,2,3-triazol-2-yl)pyridin-3-yl)-1-(4-fluoroisoquinolin-1-yl)-5-(trifluoromethyl)-1H-pyrazole-4-carboxamide]
pIC50 [1]: 6.72 | pIC50 [4]: < 6.52 | pIC50 [5]: < 6.52

O=C(Nc1cnc(-n2nc3cccnc3n2)c(Cl)c1)c1cnn(-c2cccc3ncccc23)c1C(F)(F)F [Cpd 164, N-(6-(2H-[1,2,3]triazolo[4,5-b]pyridin-2-yl)-5-chloropyridin-3-yl)-1-(quinolin-5-yl)-5-(trifluoromethyl)-1H-pyrazole-4-carboxamide]
pIC50 [1]: 6.55 | pIC50 [2]: 5.78

O=C(Nc1cnc(-n2nccn2)c(Cl)c1)c1cnn(-c2cncc3sc(C(F)F)cc23)c1C(F)(F)F [Cpd 399, N-(5-chloro-6-(2H-1,2,3-triazol-2-yl)pyridin-3-yl)-1-(2-(difluoromethyl)thieno[2,3-c]pyridin-4-yl)-5-(trifluoromethyl)-1H-pyrazole-4-carboxamide]
pIC50 [1]: 6.50 | pIC50 [4]: 7.28 | pIC50 [5]: 7.31

N#Cc1cc(NC(=O)c2cnn(-c3nccn4ccnc34)c2C(F)(F)F)cnc1-n1nccn1 [Cpd 103, N-(5-Cyano-6-(2H-1,2,3-triazol-2-yl)pyridin-3-yl)-1-(imidazo[1,2-a]pyrazin-8-yl)-5-(trifluoromethyl)-1H-pyrazole-4-carboxamide]
pIC50 [1]: 5.82 | pIC50 [4]: < 4.82 | pIC50 [5]: < 4.82

COc1nccc2c(-n3ncc(C(=O)Nc4cnc(-n5nccn5)c(C#N)c4)c3C(F)(F)F)cccc12 [Cpd 281, N-(5-cyano-6-(2H-1,2,3-triazol-2-yl)pyridin-3-yl)-1-(1-methoxyisoquinolin-5-yl)-5-(trifluoromethyl)-1H-pyrazole-4-carboxamide]
pIC50 [1]: 6.91 | pIC50 [4]: 5.59 | pIC50 [5]: 5.52

Cc1cc(NC(=O)c2cnn(-c3cccc4ncccc34)c2C(F)(F)F)cnc1-c1nnn(C)n1 [Cpd 305, N-(5-methyl-6-(2-methyl-2H-tetrazol-5-yl)pyridin-3-yl)-1-(quinolin-5-yl)-5-(trifluoromethyl)-1H-pyrazole-4-carboxamide]
pIC50 [1]: 7.21 | pIC50 [4]: < 4.82 | pIC50 [5]: 5.10

O=C(Nc1cnc(-n2nccn2)c(Cl)c1)c1cnn(-c2cc(C(F)F)nc3ccccc23)c1C(F)(F)F [Cpd 401, N-(5-chloro-6-(2H-1,2,3-triazol-2-yl)pyridin-3-yl)-1-(2-(difluoromethyl)quinolin-4-yl)-5-(trifluoromethyl)-1H-pyrazole-4-carboxamide]
pIC50 [1]: 7.25 | pIC50 [4]: 6.48 | pIC50 [5]: 6.88

Cc1cn2c(-n3ncc(C(=O)Nc4cnc(-n5nccn5)c(Cl)c4)c3C(F)(F)F)cccc2n1 [Cpd 199, N-(5-chloro-6-(2H-1,2,3-triazol-2-yl)pyridin-3-yl)-1-(2-methylimidazo[1,2-a]pyridin-5-yl)-5-(trifluoromethyl)-1H-pyrazole-4-carboxamide]
pIC50 [1]: 6.96 | pIC50 [2]: 6.53

N#Cc1cc(NC(=O)c2cnn(-c3cnnc4ccccc34)c2C(F)(F)F)cnc1-n1nccn1 [Cpd 93, 1-(Cinnolin-4-yl)-N-(5-cyano-6-(2H-1,2,3-triazol-2-yl)pyridin-3-yl)-5-(trifluoromethyl)-1H-pyrazole-4-carboxamide]
pIC50 [1]: 7.22 | pIC50 [4]: 6.35 | pIC50 [5]: 6.30
